Data set [1] deals with UOK257-FLCN^+ cells. Description: SRB growth inhibition assay in UOK257-FLCN^+ cells. Format: cell-based, human. The text has this: (§1) Human renal carcinoma of BHD origin cells UOK-257 (UOK-FLCN^−) and FLCN transfected UOK-257 cells UOK-FLCN^+ (Yang et al Cancer Genet Cytogenet. 2008 Jan. 15; 180(2):100-9) were provided by Dr Marston Linehan and Dr. Laura S Schmidt (Urologic Oncology Branch, Centre for Cancer Research, National Cancer Institute, National Institutes of Health, Bethesda, Md. 20892, USA). UOK-257 is the only RCC cell line that has been derived from a patient with BHD and harbours a germline FLCN frameshift mutation (c.1285dupC) (predicted, in the absence of nonsense mediated mRNA decay, to lead to premature protein truncation (p.His429ProfsX27) (Yang et al., Cancer Genet Cytogenet, 2008 Jan. 15; 180(2):100-9). We are not aware of any sporadic RCC cell lines with homozygous FLCN inactivation. FTC-133 cells were purchased from ECACC (Salisbury, United Kingdom). These cells are a non-RCC cell line derived from human thyroid carcinoma. 786-0 cells were available from the author's lab (Clifford et al., Hum Mol Genet. 2001 May 1; 10(10):1029-38). 786-O is a kidney cancer cell line that harbours an inactivating VHL gene mutation (c.311delG p.G104fs*55). All cell lines were cultured in DMEM with supplement of 10% foetal bovine serum except for FTC-133 cells which were incubated in medium with DMEM and Hens (1:1).
The sensitivity of the cell lines to drug-induced cell growth inhibition was determined using the sulphorhodamine B assay (SRB) as described by Lu et al., Clin Cancer Res. 2001:7:2114-23. Briefly, adherent exponentially growing cells were seeded into 96-well plates at 3-5×10^3 cells/100 μl/well. After 20-24 h at 37° C., drugs were added at the appropriate drug concentrations to the wells (final DMSO conc. 1%) as indicated in the Results section. […] The absorbance per well was measured at 570 nm on a Victor X3 Multilabel Plate Reader (PerkinElmor, Beaconsfield, United Kingdom).
UOK-257 is the only RCC cell line that has been derived from a patient with BHD and harbours a germline FLCN frameshift mutation (c.1285dupC) (predicted, in the absence of nonsense mediated mRNA decay, to lead to premature protein truncation (p.His429ProfsX27) (Yang et al Cancer Genet Cytogenet, 2008 Jan. 15; 180(2):100-9). Both UOK257-FLCN^− and UOK257-FLCN^+ cells were examined for their sensitivities to growth inhibition induced by 15 compounds selected from the COMPARE analysis. Various concentrations of compounds were introduced into the cells 24 hrs after seeding, incubation was continued for 72 hours and growth inhibition was assessed using the suiphorhodamine B (SRB) assay. GI50 values, defined as the concentration of compounds required to inhibit growth by 50%, were then calculated. The ratio of GI50 value from UOK257-FLCN^+ and UOK257-FLCN^− were calculated and used as an indicator for the sensitivity to FLCN mutant cells.

The subject of data set [2] is UOK257-FLCN^− cells. Briefly: Clonogenic cell survival assay in UOK257-FLCN^− cells.
Method: The final concentration of DMSO in the medium was 1%. Four dishes with two seeding densities for each drug concentration were used and at least three experiments were carried out under each set of conditions. […] The cells were incubated for an additional 10-16 days until visible colonies appeared, which were fixed with Carnoy's fixative (methanol:acetic acid 3:1, v:v), and visualized by staining cells in sulphorhodamine B (0.4%). Colonies with over 30 cells were counted. […] Cell survival following drug exposure was expressed as % control cloning efficiency or survival.
Data set [3] deals with UOK257-FLCN^+ cells. Description: Clonogenic cell survival assay in UOK257-FLCN^+ cells. The settings on record: 72 hrs exposure. The class given is cell-based, human. The source says: Colonies with over 30 cells were counted.
Data set [4] deals with FTC-133 cells transfected with empty vector. Description: SRB growth inhibition in FTC-133 cells, empty vector. Format: cell-based, human. The settings on record: for GI50: Homo sapiens; for differential sensitivity in FTC-133 cells with different levels of FLCN expression (in words): SRB assay.
Source text: as §1
(§2) The sensitivity of the cell lines to drug-induced cell growth inhibition was determined using the sulphorhodamine B assay (SRB) as described by Lu et al., Clin Cancer Res. 2001:7:2114-23. Briefly, adherent exponentially growing cells were seeded into 96-well plates at 3-5×10^3 cells/100 μl/well. […] The absorbance per well was measured at 570 nm on a Victor X3 Multilabel Plate Reader (PerkinElmor, Beaconsfield, United Kingdom).
(§3) A FLCN containing construct was introduced into parental FTC-133 cells and stably transfected cells were selected. SRB growth inhibition assay was carried out in cells transfected with empty vector and low FLCN and high FLCN expression.
as §3
For orientation: In SRB staining, fixed cells bind dye roughly in proportion to their protein.

The subject of data set [5] is UOK257-FLCN^− cells. Briefly: SRB growth inhibition assay in UOK257-FLCN^− cells. The settings on record: for GI50: Homo sapiens. Format: cell-based, human.
Source text: as §1, §2
GI50 values, defined as the concentration of compounds required to inhibit growth by 50%, were then calculated. The ratio of GI50 value from UOK257-FLCN^+ and UOK257-FLCN^− were calculated and used as an indicator for the sensitivity to FLCN mutant cells.

The test system of data set [6] is UOK257-FLCN^− and UOK257-FLCN^+ cells. Briefly: CellTiter-Blue cell viability assay in UOK-257 cells with/without FLCN expression. Format: cell-based, human. The settings on record: 200 nM, 48 hrs. As for the experimental part: The ability to induce caspase 3/7 activation after exposure to compounds was measured by Caspase-Glo 3/7 Assay (Promega, Southampton, United Kingdom) according to manufacturer's instruction. The cells were seeded and dosed as described in growth inhibition assay. At the end of incubation, 70 μl of medium was removed and 30 μl of assay reagent was added to the remaining medium. Additional one hour incubation with shaking was carried out at room temperature. The resultant luminescent light was measured in a Victor X3 Multilabel Plate Reader (PerkinElmer, Beaconsfield, United Kingdom). Cell viability after compound exposure was determined by CellTiter-Blue Cell Viability Assay (Promega, Southampton, the United Kingdom) according to manufacturer's instruction. At the end of drug treatment, 20 μl of reagent was added to the medium in 96 wells and the cells were incubated for additional 4 hours. The cell viability was measured by fluorescence with a 570 nm excitation and 590 nm emission set in a Victor X3 Multilabel Plate Reader (PerkinElmer, Beaconsfield, United Kingdom).
These were calculated and used as indicators for the sensitivity to mutant FLCN cells. Cells were exposed continuously to the indicated concentrations of drugs for 48 hours. Values are the mean±SD from at least three experiments.
(Resazurin is reduced to fluorescent resorufin, in cell work by metabolically active cells.)

Data set [7] relates to FTC-133 cells with FLCN expressed at low levels. Description: SRB growth inhibition in FTC-133 cells, low FLCN expression. The settings on record: Homo sapiens, SRB assay. Format: cell-based.
Source text: as §1, with “786-O is a kidney cancer cell line that harbours an inactivating VHL gene mutation (c.311delG p.G104fs*55). All cell lines were cultured in DMEM with supplement of 10% foetal bovine serum except for FTC-133 cells which were incubated in medium with DMEM and Hens (1:1).” left out
The sensitivity of the cell lines to drug-induced cell growth inhibition was determined using the sulphorhodamine B assay (SRB) as described by Lu et al., Clin Cancer Res. 2001:7:2114-23. […] The absorbance per well was measured at 570 nm on a Victor X3 Multilabel Plate Reader (PerkinElmor, Beaconsfield, United Kingdom). […]

Read-outs that look alike come from different tables or passages of the source.

As usually defined, the GI50 is the concentration that inhibits growth by half. As to `CO[C@H](C(=O)[C@@H](O)[C@@H](C)O)C1Cc2cc3cc(OC4CC(OC5CC(O)C(O)C(C)O5)C(O)C(C)O4)c(C)c(O)c3c(O)c2C(=O)[C@H]1OC1CC(OC2CC(OC3CC(C)(O)C(O)C(C)O3)C(O)C(C)O2)C(O)C(C)O1` (some centres unmarked) [mithramycin, Mithramycin], the GI50 in data set [1] (72 hours continuous exposure, mean ± SE (n), read-out: GI50 nM in UOK-FLCN^+) amounted to 634 ± 148 nM; in data set [1] (Homo sapiens, 72 h, 72 hours continuous exposure, mean ± SE (n), read-out: GI50 nM in UOK-FLCN^+), 634 ± 148 nM; in data set [1] (Homo sapiens, read-out: GI50 in FLCN-wt UOK257 cells), 634 ± 148 nM; in data set [4] (FTC-133, 72 h, read-out: GI50 in FTC-133 cells, empty vector) it was 59.3 ± 8.9 nM; in data set [4] (FTC-133, read-out: GI50 in FTC-133 cells, empty vector) it was 59.3 ± 8.9 nM; in data set [5] (72 h, read-out: GI50 nM in UOK-FLCN^−) it was 64.2 ± 7.9 nM. For the same compound, the GI50 in data set [5] (72 h, read-out: GI50 in UOK257-FLCN^− cells, rapamycin combination experiment) came to 69 ± 10 nM; in data set [5] (read-out: GI50 in FLCN-null UOK257 cells) it was 64.2 ± 7.9 nM; in data set [7], 38.7 ± 10.4 nM; in data set [7] (72 hours), 38.7 ± 10.4 nM. Besides, the “fold more cytotoxic to FLCN-null than FLCN-wild type UOK257 cells (clonogenic survival)” value in data set [2] (200 nM where stated) was around 10 fold. Also, in data set [2] (200 nM, 72 hrs exposure), the “viable cells (clonogenic survival), UOK-257 cells without FLCN expression” value is “less than 8%”. Further, the “cells survived (clonogenic), UOK257-FLCN^− cells” value in data set [2] (500 nM, 72 hrs exposure) is recorded as “less than 0.1%”. For the same compound, the “cell survival (clonogenic), UOK257-FLCN^+ cells” value in data set [3] (200 nM) is on record as “more than 85%”. Further, the “cells able to form colonies, UOK257-FLCN^+ cells” value in data set [3] (500 nM) is “more than 60%”. Further, in data set [3] (5000 nM), the “cells survived (clonogenic), UOK257-FLCN^+ cells” value is given as “more than 4%”. The “differential sensitivity in FTC-133 cells with different levels of FLCN expression (in words)” value is recorded as “no apparent differential mithramycin sensitivity” in data set [4] and “does not show genotypic selective growth inhibitory activity” in data set [4] (listed as Mithramycin). Moreover, the “GI50 Ratio of UOK-FLCN^+/UOK-FLCN^−” value in data set [5] (ratio>1 = more inhibitory to FLCN^− cells) is 9.88. Besides, in data set [6], the “ratio of cell viability from UOK257-FLCN^+ and UOK257-FLCN^− (cell death)” value is on record as 2 fold.

For the origin of these results see patent publication US20130150317A1, “COMPOUNDS FOR THE TREATMENT OF RENAL CELL CARCINOMA” (Myrovlytis Technology Ventures Limited, priority 2010, published 2013).
